Source: patent US20230391714A1, “INHIBITORS OF THE INTERACTION BETWEEN TRIP8B AND HCN CHANNELS AND USES THEREOF FOR TREATING NEUROLOGICAL DISEASES AND DISORDERS” (Northwestern University, priority 2022, published 2023)
Like-named read-outs stand apart in the source and are kept apart here.

Assays:
[1] = Thermodynamic solubility in PBS; format: physicochemical; details: aqueous buffer, thermodynamic from solid; PBS at pH 7.4, room temperature, stirring for 16 hours
Excerpt: (§1) Solubility and Mouse Microsomal Stability. […] In order to improve the aqueous solubility to support additional biochemical assays we made and characterized several salt forms. The formic acid (FA) salt was recovered after reverse-phase preparative HPLC while using formic acid as a modifier. […] On stirring the free amine in 4M HCl in dioxane, the compound was converted to the HCl salt as a white solid (Scheme 1). […] As a result, the HCl-salt of NUCC-0200590 was used for biophysical assays. The inhibitor was also screened for in vitro stability towards mouse liver microsomes to evaluate its potential metabolism and suitability for future in vivo experiments. The microsomal stability was measured after a 60-minute incubation at 37° C. with mouse liver microsomes. The compound was almost completely consumed by mouse liver microsomes after a 60-minute incubation as only 3.7% of the parent compound remained.

[2] = DMSO needed in PBS to see proton signals in 1H-NMR (aqueous solubility); format: physicochemical; details: PBS (pH 7.4)
Excerpt: as §1

[3] = molecular target: TRIP8b-HCN1c40 (Homo sapiens (Human), UniProt Q8IYB4); assay: TRIP8b-HCN1c40 AlphaScreen assay; format: binding
TRIP8b-HCN1c40, sequence (Q8IYB4 265-626): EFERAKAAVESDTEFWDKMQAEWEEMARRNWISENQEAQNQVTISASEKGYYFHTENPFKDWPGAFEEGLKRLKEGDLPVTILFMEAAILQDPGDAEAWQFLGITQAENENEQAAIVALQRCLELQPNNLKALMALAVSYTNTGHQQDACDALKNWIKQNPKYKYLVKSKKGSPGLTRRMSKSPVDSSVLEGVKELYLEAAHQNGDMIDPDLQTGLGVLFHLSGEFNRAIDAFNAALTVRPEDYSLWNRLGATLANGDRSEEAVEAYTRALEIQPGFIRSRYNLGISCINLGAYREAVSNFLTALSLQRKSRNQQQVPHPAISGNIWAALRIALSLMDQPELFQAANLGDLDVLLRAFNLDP
Experimental: AlphaScreen Assay. 20 nM ofGST-tagged HCNlc40 protein (corresponding to the C terminal 40 amino acids of HCN1) was incubated with 200 nM of His-tagged TRIP8b(241-602) and varying concentrations of the test compound as described in our prior report (Han et al., 2015). After a 3 h incubation, anti-GST AlphaScreen acceptor beads were added for 1.5 h followed by AlphaScreen nickel chelate donor beads for 1.5 h. AlphaScreen signal was quantified using a PerkinElmer (Waltham, MA) EnSpire multimode plate reader.

[4] = activity ranges, read-out: TRIP8b-HCN1c40 Alphascreen IC50 activity
[5] = read-out: TRIP8b-HCN1c40 Alphascreen IC50

IC50 [3, 4] [µM] | IC50 [3, 5] [µM] | SMILES | solubility thermodynamic at 16 h [1] [µM] | DMSO in PBS required to see proton signals in 1H-NMR [2] [%]
 |  | CN1CCN(Cc2cc(-c3ccc(F)cc3)ccc2OCC(=O)NCc2ccc(Cl)cc2)CC1.O=CO [NUCC-0200590 FA salt, N-(4-chlorobenzyl)-2-((4′-fluoro-3-((4-methylpiperazin-1-yl)methyl)-[1,1′-biphenyl]-4-yl)oxy)acetamide formate] | 45 | 15
1 to 2 | 1.3 | CN1CCN(Cc2cc(-c3ccc(Cl)c(Cl)c3)ccc2OCC(=O)NC2Cc3ccccc3C2)CC1 [NUCC-0201989] |  | 
< 1 | < 0.74 | CN1CCN(Cc2cc(-c3ccc(Cl)c(Cl)c3)ccc2OCC(=O)N2CCc3ccccc3C2)CC1 [NUCC-0201990] |  | 
< 1 | < 0.74 | CN1CCN(Cc2cc(-c3ccc(Cl)c(Cl)c3)ccc2OCC(=O)N2CCc3cc(Cl)c(Cl)cc32)CC1 [NUCC-0201991] |  | 
< 1 | < 0.74 | CN1CCN(Cc2cc(-c3ccc(Cl)c(Cl)c3)ccc2OCC(=O)NC2Cc3ccc(Cl)cc3C2)CC1 (stereo not drawn) [NUCC-0201992] |  | 
1 to 2 | 1.9 | CN1CCN(Cc2cc(-c3ccc(Cl)c(Cl)c3)ccc2OCC(=O)N2Cc3ccc(Cl)cc3C2)CC1 [NUCC-0201993] |  | 
2 to 5 | 3.4 | CN1CCN(Cc2cc(-c3ccc(Cl)c(Cl)c3)ccc2OCC(=O)NCCc2ccc(C#N)cc2)CC1 [NUCC-0201994] |  | 
< 1 | < 0.74 | CN1CCN(Cc2cc(-c3ccc(Cl)c(Cl)c3)ccc2OCC(=O)NCCc2ccc(C(F)(F)F)cc2)CC1 [NUCC-0201995] |  | 
1 to 2 | 1.1 | CN1CCN(Cc2cc(-c3ccc(Cl)c(Cl)c3)ccc2OCC(=O)NCCc2ccccc2)CC1 [NUCC-0201996] |  | 
< 1 | < 0.74 | CN1CCN(Cc2cc(-c3ccccc3Cl)ccc2OCC(=O)Nc2ccc(Cl)c(Cl)c2)CC1 [NUCC-0201997] |  | 
< 1 | < 0.74 | CN1CCN(Cc2cc(-c3cccc(Cl)c3)ccc2OCC(=O)Nc2ccc(Cl)c(Cl)c2)CC1 [NUCC-0201998] |  | 
< 1 | < 0.74 | CN1CCN(Cc2cc(-c3ccc(Cl)cc3)ccc2OCC(=O)Nc2ccc(Cl)c(Cl)c2)CC1 [NUCC-0201999] |  | 
< 1 | 0.76 | Cc1cccc(-c2ccc(OCC(=O)Nc3ccc(Cl)c(Cl)c3)c(CN3CCN(C)CC3)c2)c1 [NUCC-0202000] |  | 
< 1 | < 0.74 | CN1CCN(Cc2cc(-c3ccc(Cl)cc3Cl)ccc2OCC(=O)Nc2ccc(Cl)c(Cl)c2)CC1 [NUCC-0202001] |  | 
< 1 | < 0.74 | CN1CCN(Cc2cc(-c3ccc(Cl)c(Cl)c3)ccc2OCC(=O)Nc2ccc(Cl)c(Cl)c2)CC1 [NUCC-0202002] |  | 
< 1 | < 0.74 | CN1CCN(Cc2cc(-c3cc(Cl)cc(Cl)c3)ccc2OCC(=O)Nc2ccc(Cl)c(Cl)c2)CC1 [NUCC-0202003] |  | 
< 1 | 0.89 | CN1CCN(Cc2cc(-c3ccccc3)ccc2OCC(=O)Nc2ccc(Cl)c(Cl)c2)CC1 [NUCC-0202004] |  | 
5 to 10 | 5.5 | CN1CCN(Cc2cc(-c3cccnc3)ccc2OCC(=O)Nc2ccc(Cl)c(Cl)c2)CC1 [NUCC-0202005] |  | 
5 to 10 | 5.3 | CN1CCN(Cc2cc(-c3ccncc3)ccc2OCC(=O)Nc2ccc(Cl)c(Cl)c2)CC1 [NUCC-0202006] |  | 
2 to 5 | 4.6 | CN1CCN(Cc2cc(-c3cc(C(F)(F)F)cnc3Cl)ccc2OCC(=O)Nc2ccc(Cl)c(Cl)c2)CC1 [NUCC-0202007] |  | 
1 to 2 | 1.2 | CN1CCN(Cc2ccc(-c3ccc(Cl)c(Cl)c3)cc2OCC(=O)NCc2ccc(Cl)cc2)CC1 [NUCC-0202008] |  | 
1 to 2 | 1 | CN1CCN(Cc2ccc(-c3ccc(Cl)cc3)cc2OCC(=O)NCc2ccc(Cl)cc2)CC1 [NUCC-0202009] |  | 
5 to 10 | 5.7 | CN1CCN(Cc2ccc(-c3ccc(F)cc3)cc2OCC(=O)NCc2ccc(Cl)cc2)CC1 [NUCC-0202010] |  | 
1 to 2 | 1.5 | Cc1ccc(-c2ccc(CN3CCN(C)CC3)c(OCC(=O)NCc3ccc(Cl)cc3)c2)cc1 [NUCC-0202011] |  | 
2 to 5 | 2.1 | CN1CCN(Cc2ccc(-c3ccc(C(F)(F)F)cc3)cc2OCC(=O)NCc2ccc(Cl)cc2)CC1 [NUCC-0202012] |  | 
1 to 2 | 1.4 | CN1CCN(Cc2ccc(-c3ccc(F)c(C(F)(F)F)c3)cc2OCC(=O)NCc2ccc(Cl)cc2)CC1 [NUCC-0202013] |  | 
< 1 | 0.81 | CN1CCN(Cc2cc(-c3ccc(Cl)c(Cl)c3)ccc2OCC(=O)Nc2ccc3ncsc3c2)CC1 [NUCC-0202014] |  | 

IC50 [3, 4] [µM] | IC50 [3, 5] [µM] | SMILES | solubility thermodynamic at 16 h [1] [µM] | DMSO in PBS required to see proton signals in 1H-NMR [2] [%]
1 to 2 | 1.1 | C=Cc1ccccc1NC(=O)COc1ccc(-c2ccc(Cl)c(Cl)c2)cc1CN1CCN(C)CC1 [NUCC-0202015] |  | 
< 1 | 0.78 | CN1CCN(Cc2cc(-c3ccc(Cl)c(Cl)c3)ccc2OCC(=O)Nc2ccc(Cl)cc2)CC1 [NUCC-0202016] |  | 
< 1 | < 0.74 | CN1CCN(Cc2cc(-c3ccc(Cl)c(Cl)c3)ccc2COC(=O)Nc2ccc3c(c2)OCO3)CC1 [NUCC-0202017] |  | 
1 to 2 | 1 | Cc1ccc(NC(=O)COc2ccc(-c3ccc(Cl)c(Cl)c3)cc2CN2CCN(C)CC2)cc1 [NUCC-0202018] |  | 
1 to 2 | 1.3 | COc1ccc(NC(=O)COc2ccc(-c3ccc(Cl)c(Cl)c3)cc2CN2CCN(C)CC2)cc1 [NUCC-0202019] |  | 
1 to 2 | 1.5 | CN1CCN(Cc2cc(-c3ccc(N)cc3)ccc2OCC(=O)Nc2ccc(Cl)c(Cl)c2)CC1 [NUCC-0202020] |  | 
1 to 2 | 1.4 | CN1CCN(Cc2cc(-c3ccc4c(c3)OCCO4)ccc2OCC(=O)Nc2ccc(Cl)c(Cl)c2)CC1 [NUCC-0202021] |  | 
2 to 5 | 2.7 | CN1CCN(Cc2cc(-c3cccc(S(C)(=O)=O)c3)ccc2OCC(=O)Nc2ccc(Cl)c(Cl)c2)CC1 [NUCC-0202022] |  | 
1 to 2 | 1.3 | CN1CCN(Cc2cc(-c3ccc(Cl)c(C(F)(F)F)c3)ccc2OCC(=O)Nc2ccc(Cl)c(Cl)c2)CC1 [NUCC-0202023] |  | 
2 to 5 | 3.2 | CN1CCN(Cc2cc(-c3ccc(CO)cc3)ccc2OCC(=O)Nc2ccc(Cl)c(Cl)c2)CC1 [NUCC-0202024] |  | 
1 to 2 | 1.5 | CC(Oc1ccc(-c2ccc(Cl)cc2)cc1CN1CCN(C)CC1)C(=O)NCc1ccc(Cl)cc1 (stereo not drawn) [NUCC-0202025] |  | 
< 1 | 0.91 | CC(Oc1ccc(-c2ccc(Cl)cc2Cl)cc1CN1CCN(C)CC1)C(=O)NCc1ccc(Cl)cc1 (stereo not drawn) [NUCC-0202026] |  | 
< 1 | 0.94 | CC(Oc1ccc(-c2ccc(Cl)c(Cl)c2)cc1CN1CCN(C)CC1)C(=O)NCc1ccc(Cl)cc1 (stereo not drawn) [NUCC-0202027] |  | 
< 1 | 0.86 | CC(Oc1ccc(-c2cc(Cl)cc(Cl)c2)cc1CN1CCN(C)CC1)C(=O)NCc1ccc(Cl)cc1 (stereo not drawn) [NUCC-0202028] |  | 
2 to 5 | 4.5 | CC(Oc1ccc(-c2ccc(C(F)(F)F)cc2)cc1CN1CCN(C)CC1)C(=O)NCc1ccc(Cl)cc1 (stereo not drawn) [NUCC-0202029] |  | 
10 to 20 | 14 | CC(Oc1ccc(-c2ccc(O)cc2)cc1CN1CCN(C)CC1)C(=O)NCc1ccc(Cl)cc1 (stereo not drawn) [NUCC-0202030] |  | 
2 to 5 | 3.4 | Cc1ccc(-c2ccc(OC(C)C(=O)NCc3ccc(Cl)cc3)c(CN3CCN(C)CC3)c2)cc1 (stereo not drawn) [NUCC-0202031] |  | 
2 to 5 | 3.2 | CC(Oc1ccc(-c2ccc(F)cc2)cc1CN1CCN(C)CC1)C(=O)NCc1ccc(Cl)cc1 (stereo not drawn) [NUCC-0202032] |  | 
< 1 | 0.99 | CC(Oc1ccc(-c2ccc(F)c(C(F)(F)F)c2)cc1CN1CCN(C)CC1)C(=O)NCc1ccc(Cl)cc1 (stereo not drawn) [NUCC-0202033] |  | 
2 to 5 | 2.7 | CC(Oc1ccc(-c2ccc([N+](=O)[O-])cc2)cc1CN1CCN(C)CC1)C(=O)NCc1ccc(Cl)cc1 (stereo not drawn) [NUCC-0202034] |  | 
< 1 | 0.84 | Cc1ccc([C@@H](C)NC(=O)C(C)Oc2ccc(-c3ccc(Cl)cc3)cc2CN2CCN(C)CC2)cc1 (stereo partly drawn) [NUCC-0202046] |  | 
< 1 | < 0.74 | Cc1ccc([C@@H](C)NC(=O)C(C)Oc2ccc(-c3ccc(Cl)c(Cl)c3)cc2CN2CCN(C)CC2)cc1 (stereo partly drawn) [NUCC-0202047] |  | 
1 to 2 | 1.9 | Cc1ccc(-c2ccc(OC(C)C(=O)N[C@H](C)c3ccc(C)cc3)c(CN3CCN(C)CC3)c2)cc1 (stereo partly drawn) [NUCC-0202048] |  | 
< 1 | < 0.74 | Cc1ccc([C@@H](C)NC(=O)C(C)Oc2ccc(-c3cc(Cl)cc(Cl)c3)cc2CN2CCN(C)CC2)cc1 (stereo partly drawn) [NUCC-0202049] |  | 
< 1 | < 0.74 | Cc1ccc(C(C)NC(=O)C(C)Oc2ccc(-c3cc(Cl)cc(-c4cc(Cl)cc(Cl)c4)c3)cc2CN2CCN(C)CC2)cc1 (stereo not drawn) [NUCC-0202050] |  | 
10 to 20 | 18 | CN1CCN(Cc2cc(-c3ccc(N)cc3)ccc2OCC(=O)NCc2ccc(Cl)cc2)CC1 [NUCC-0202053] |  | 
< 1 | < 0.74 | CN1CCN(Cc2cc(-c3ccc(Cl)cc3Cl)ccc2OCC(=O)NCc2ccc(Cl)cc2)CC1 [NUCC-0202054] |  | 
